# Data from patent US12433838B2, “Liposomal formulation of bacterial lipopolysaccharide combined with a cytotoxic agent, and use thereof in anti-tumour therapy” (priority 2017, dated 2025).
# Experiments:
# SaOS cells = experiment: Apoptosis of SaOS spheroids with Lipo-LPS-activated THP-1 macrophages and/or etoposide (IncuCyte Caspase-3/7); type: cell-based, rat; conditions: 5 μM etoposide or macrophages stimulated 16 h with 100 ng/mL Lipo-LPS, fluorescence arbitrary units, FIG. 6
# Source text: The SaOS cells are […] osteosarcoma cells. This is a malignant bone tumour. These cells can be cultured according to a 3D spheroid model adapted to tumour cells.
# THP-1 are human monocytic cells derived from an acute monocytic leukemia.
# To perform cellular death monitoring of these SaOS cells, the fluorescent product IncuCyte® Caspase-3/7 has been used to evaluate the number of apoptosis cells.
# The results are shown in FIG. 6, in fluorescence arbitrary units.
# [1] = test system: RL lymphoma cells (CD20+ human B lymphoma cells); experiment: Tumour growth monitoring in RL cells xenografted mice; type: in vivo, Scid CB17 mice; conditions: 46 days after the tumour graft; 30 mg/kg, one injection per week; FIG. 1
# Source text: During this experiment, six groups of Scid CB17 mice have been used. Each group is comprised at six mice.
# Group 1=control (no treatment)
Compound,Apoptosis rate of SaOS cells with respect to the control (SaOS cells),Apoptosis rate of SaOS cells with respect to the control (SaOS cells; listed as epotoside),Tumour volume relative to control mice [1]
COc1cc([C@@H]2c3cc4c(cc3[C@@H](O[C@@H]3O[C@@H]5CO[C@@H](C)O[C@H]5[C@H](O)[C@H]3O)[C@H]3COC(=O)[C@H]23)OCO4)cc(OC)c1O [etoposide],induces cancer cell apoptosis,significantly increased with respect to the control,
rituximab,,,twice lower
